The results in this text go back to the NIST ThermoML archive (doi:10.1021/je060257y).

Numbers after ± are expanded uncertainties.

A short description of this data set: molar heat capacity at constant pressure. The following applies: 101.33 kPa, Crystal.

On to `O=c1cc(Cl)[nH]c(=O)[nH]1` [6-chlorouracil], for which the “molar heat capacity at constant pressure” value came to 139.4 ± 4.3 J/K/mol (298.15 K); 141 ± 4.4 J/K/mol (303.15 K); 141.2 ± 4.4 J/K/mol (308.15 K); 140.8 ± 4.4 J/K/mol (313.15 K); 141.3 ± 4.4 J/K/mol (318.15 K); 144.7 ± 4.5 J/K/mol (323.15 K). The “molar heat capacity at constant pressure” value by setting is: (328.15 K) 144.9 ± 4.5 J/K/mol; (333.15 K) 145.1 ± 4.5 J/K/mol; (338.15 K) 146 ± 4.5 J/K/mol; (343.15 K) 147.9 ± 4.6 J/K/mol.

`Cc1c[nH]c(=O)[nH]c1=O` [thymine]: the “molar heat capacity at constant pressure” value by setting is: (298.15 K) 163 ± 5.3 J/K/mol; (303.15 K) 168.2 ± 5.4 J/K/mol; (308.15 K) 173.7 ± 5.6 J/K/mol; (313.15 K) 178.7 ± 5.7 J/K/mol; (318.15 K) 184.3 ± 5.8 J/K/mol; (323.15 K) 189.9 ± 6 J/K/mol. For the same compound, the “molar heat capacity at constant pressure” value stood at 195.2 ± 6.1 J/K/mol (328.15 K), 200 ± 6.2 J/K/mol (333.15 K), 203.5 ± 6.3 J/K/mol (338.15 K) and 205.9 ± 6.4 J/K/mol (343.15 K).

`Cn1c(=O)cc[nH]c1=O` [uracil, 3-methyl-]: the “molar heat capacity at constant pressure” value reads like this: (298.15 K) 157 ± 5 J/K/mol; (303.15 K) 168.8 ± 5.3 J/K/mol; (308.15 K) 181.2 ± 5.7 J/K/mol; (313.15 K) 193 ± 6 J/K/mol; (318.15 K) 206.1 ± 6.4 J/K/mol; (323.15 K) 214.3 ± 6.6 J/K/mol. Besides, the “molar heat capacity at constant pressure” value came to 226.1 ± 7 J/K/mol (328.15 K), 239.2 ± 7.4 J/K/mol (333.15 K), 249 ± 7.7 J/K/mol (338.15 K) and 260.2 ± 8.1 J/K/mol (343.15 K).
